Results as given in US6548518B2, “Methods of treating gastro-esophogeal reflux disease using (-) norcisapride in combination with proton pump inhibitors or H2 receptor antagonists” (Sepracor, Inc., priority 1999, dated 2003).

Key:
[1] = co-administration with ketoconazole; inhibition of metabolic elimination of cisapride; cited from earlier work
[2] = target: T1, 5-HT3 receptor (Mus musculus, UniProt P23979); assay: Radioligand binding to 5-HT3 receptor subtypes derived from N1E-115 cells (Cerep); details: Table 3; ratio of IC50 at 5-HT3 to IC50 at 5-HT4
T1 construct: host or cells: N1E-115 cells
T1 sequence (P23979 24-489): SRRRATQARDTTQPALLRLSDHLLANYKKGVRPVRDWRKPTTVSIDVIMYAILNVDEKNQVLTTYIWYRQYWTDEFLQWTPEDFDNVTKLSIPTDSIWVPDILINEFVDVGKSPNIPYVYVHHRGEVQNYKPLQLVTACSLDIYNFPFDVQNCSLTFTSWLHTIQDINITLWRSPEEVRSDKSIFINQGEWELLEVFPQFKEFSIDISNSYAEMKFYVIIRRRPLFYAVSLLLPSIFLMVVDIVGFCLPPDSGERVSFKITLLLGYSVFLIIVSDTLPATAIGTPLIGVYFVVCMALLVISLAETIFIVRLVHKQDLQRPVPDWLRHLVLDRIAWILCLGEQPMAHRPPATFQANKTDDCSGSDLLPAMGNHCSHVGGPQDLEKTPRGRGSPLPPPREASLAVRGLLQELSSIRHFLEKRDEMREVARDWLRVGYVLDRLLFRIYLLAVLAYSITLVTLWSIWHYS
Experimental: Following incubation with the appropriate ligands, the preparations were rapidly filtered under vacuum through GF/B glass fiber filters and washed with ice-cold buffer using a Brandel or Packard cell harvester.
Specific radioligand binding to the receptor was defined as the difference between total binding and nonspecific binding determined in the presence of an excess of unlabeled ligand. Results were expressed as a percent inhibition of specific binding obtained in the presence of the compounds.

COc1cc(N)c(Cl)cc1C(=O)N[C@H]1CCN(CCCOc2ccc(F)cc2)C[C@H]1OC (racemic) [(±) Cisapride, cis-4-amino-5-chloro-N-[1-[3-(4-fluorophenoxy)propyl]-3-methoxy-4-piperidinyl]-2-methoxybenzamide]
increase of the steady-state plasma levels [1]: 8 fold

COc1cc(N)c(Cl)cc1C(=O)NC1CCNCC1OC (racemic) [(±) Norcisapride, 4-amino-5-chloro-N-(3-methoxy-4-piperidinyl)-2-methoxybenzamide]
5-HT3/5-HT4 Ratio [2]: 0.012

COc1cc(N)c(Cl)cc1C(=O)NC1CCNCC1OC (single isomer, unassigned; (+)) [(+) Norcisapride]
5-HT3/5-HT4 Ratio [2]: 0.014

COc1cc(N)c(Cl)cc1C(=O)NC1CCNCC1OC (single isomer, unassigned; (-)) [(−) Norcisapride]
5-HT3/5-HT4 Ratio [2]: 0.023
